The target in this test is LSD-1 enzyme (Homo sapiens (Human), UniProt O60341). As to the kind of experiment: LANCE LSD1/KDM1A demethylase assay (LSD1 histone demethylase biochemical assay). The conditions noted are these: 1 nM LSD-1 enzyme, 1 hour preincubation at 25° C., 0.4 μM Biotin-labeled Histone H3 peptide substrate. On the procedure: LANCE LSD1/KDM1A demethylase assay—10 μL of 1 nM LSD-1 enzyme (ENZO BML-SE544-0050) in the assay buffer (50 mM Tris, pH 7.5, 0.01% Tween-20, 25 mM NaCl, 5 mM DTT) were preincubated for 1 hour at 25° C. with 0.8 μL compound/DMSO dotted in black 384 well polystyrene plates. […] After stopping the reactions plates were incubated for 30 minutes and read on a PHERAstar FS plate reader (BMG Labtech).

pIC50: −log10 of the molar value.

The compound `CS(=O)(=O)N1CC(CCO)(N2CCC(N[C@@H]3C[C@H]3c3ccccc3)CC2)C1` [Example 93, 2-[1-(methylsulfonyl)-3-(4-{[(1R,2S)-2-phenylcyclopropyl]amino}piperidin-1-yl)azetidin-3-yl]ethanol] had a pIC50 greater than 7.00.

The pIC50 is the negative decadic logarithm of the IC50, by convention in mol/L.

The values above are taken from patent US10676457B2, “Cyclopropylamines as LSD1 inhibitors” (Incyte Corporation, priority 2014, dated 2020).
